# From patent publication US9284321B2, “Piperazino[1,2-a]indol-1-ones and [1,4]diazepino[1,2-a]indol-1-one” (Hoffmann-La Roche Inc., priority 2012, dated 2016)
# Columns and labels:
# [1] = system: human embryonic stem cell derived neural stem cells (NSCs); assay: Neural Stem Cell Proliferation Assay (neurogenesis assay, ATP levels by CellTiterGlo); format: cell-based; settings: 96 h, compound concentration at which 150% activity of control (100%) is reached, NSC proliferation by ATP level after 4 days incubation, dose response 8 μM to 8 nM
# How it was run: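 Human ESC-derived NSCs (dual SMAD inhibition) seeded 4 h before compounds, 11-point 2-fold series 8 μM–8 nM; 4 days at 37 °C, 5% CO2. ATP by CellTiterGlo luminescence as cell-number proxy, response as % of media control (0.25% DMSO); EC150 = concentration giving 150% of control.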
Structure (SMILES),melting point,EC (150% of control) [1]
"Cc1c2n(c3c(-c4ccc(S(C)(=O)=O)cc4)cc(Cl)cc13)CCNC2=O [Example 107, 8-Chloro-6-(4-methanesulfonyl-phenyl)-10-methyl-3,4-dihydro-2H-pyrazino[1,2-a]indol-1-one]",321.5 °C,0.027 µM
"Cc1ccc(-c2cc(C#N)cc3c(C)c4n(c23)CCNC4=O)cc1F [Example 267, 6-(3-Fluoro-4-methylphenyl)-10-methyl-1-oxo-3,4-dihydro-2H-pyrazino[1,2-a]indole-8-carbonitrile]",255 °C,0.71 µM
"Cc1c2n(c3c(-c4ccc(Cl)c(Cl)c4)cc(C#N)cc13)CCNC2=O [Example 260, 6-(3,4-Dichlorophenyl)-10-methyl-1-oxo-3,4-dihydro-2H-pyrazino[1,2-a]indole-8-carbonitrile]",245 °C,0.12 µM
"COc1ccc(-c2cc(F)cc3c(C)c4n(c23)CCNC4=O)cc1 [Example 75, 8-Fluoro-6-(4-methoxy-phenyl)-10-methyl-3,4-dihydro-2H-pyrazino[1,2-a]indol-1-one]",237 °C,0.005 µM
"N#Cc1cc(-c2ccncc2)c2c(c1)cc1n2CCNC1=O [Example 92, 1-Oxo-6-pyridin-4-yl-1,2,3,4-tetrahydro-pyrazino[1,2-a]indole-8-carbonitrile]",315.5 °C,0.047 µM
"Cc1c2n(c3c(-c4cc(F)cc(F)c4)cc(Cl)cc13)CCNC2=O [Example 99, 8-Chloro-6-(3,5-difluoro-phenyl)-10-methyl-3,4-dihydro-2H-pyrazino[1,2-a]indol-1-one]",241 °C,0.12 µM
"CC1CCNC(=O)c2cc3cc(F)cc(-c4ccccc4)c3n21 (racemic) [Example 26, (RS)-9-Fluoro-5-methyl-7-phenyl-2,3,4,5-tetrahydro-[1,4]diazepino[1,2-a]indol-1-one]",232.5 °C,0.24 µM
"COc1ccc(-c2cc(C#N)cc3cc4n(c23)CCCNC4=O)cc1 [Example 275, 7-(4-Methoxyphenyl)-1-oxo-2,3,4,5-tetrahydro-[1,4]diazepino[1,2-a]indole-9-carbonitrile]",260.5 °C,1.11 µM
"O=C1NCCCn2c1cc1cc(F)cc(-c3ccccc3)c12 [Example 15, 9-Fluoro-7-phenyl-2,3,4,5-tetrahydro-[1,4]diazepino[1,2-a]indol-1-one]",277 °C,0.084 µM
"COc1ccc(-c2cc(C#N)cc3cc4n(c23)CCNC4=O)cc1 [Example 79, 6-(4-Methoxy-phenyl)-1-oxo-1,2,3,4-tetrahydro-pyrazino[1,2-a]indole-8-carbonitrile]",278.5 °C,0.004 µM
"Cc1c2n(c3c(-c4ccncc4)cc(C#N)cc13)CCNC2=O [Example 243, 10-Methyl-1-oxo-6-pyridin-4-yl-3,4-dihydro-2H-pyrazino[1,2-a]indole-8-carbonitrile]",307 °C,0.09 µM
"Cc1c2n(c3c(-c4ccc(F)nc4)cc(F)cc13)CCNC2=O [Example 141, 8-Fluoro-6-(6-fluoro-pyridin-3-yl)-10-methyl-3,4-dihydro-2H-pyrazino[1,2-a]indol-1-one]",247 °C,0.13 µM
"COc1ncc(-c2cc(F)cc3c(C)c4n(c23)CCNC4=O)cn1 [Example 156, 8-Fluoro-6-(2-methoxy-pyrimidin-5-yl)-10-methyl-3,4-dihydro-2H-pyrazino[1,2-a]indol-1-one]",271 °C,0.11 µM
"CS(=O)(=O)c1ccc(-c2cc(C#N)cc3cc4n(c23)CCNC4=O)cc1 [Example 191, 6-(4-Methylsulfonylphenyl)-1-oxo-3,4-dihydro-2H-pyrazino[1,2-a]indole-8-carbonitrile]",329 °C,0.24 µM
"Cc1c2n(c3c(-c4cncnc4)cc(C#N)cc13)CCNC2=O [Example 283, 10-Methyl-1-oxo-6-pyrimidin-5-yl-3,4-dihydro-2H-pyrazino[1,2-a]indole-8-carbonitrile]",325 °C,1.61 µM
"Cc1c2n(c3c(-c4cnc(N)nc4)cc(F)cc13)CCNC2=O [Example 157, 6-(2-Amino-pyrimidin-5-yl)-8-fluoro-10-methyl-3,4-dihydro-2H-pyrazino[1,2-a]indol-1-one]",310 °C,0.19 µM
"Cc1ccc(-c2cc(C#N)cc3cc4n(c23)CCNC4=O)cc1 [Example 94, 1-Oxo-6-p-tolyl-1,2,3,4-tetrahydro-pyrazino[1,2-a]indole-8-carbonitrile]",285.5 °C,0.011 µM
"Cc1c2n(c3c(-c4ccnc(Cl)c4)cc(C#N)cc13)CCNC2=O [Example 281, 6-(2-Chloropyridin-4-yl)-10-methyl-1-oxo-3,4-dihydro-2H-pyrazino[1,2-a]indole-8-carbonitrile]",281 °C,0.22 µM
"Cc1c2n(c3c(-c4ccc(Cl)c(C(F)(F)F)c4)cc(F)cc13)CCNC2=O [Example 150, 6-(4-Chloro-3-trifluoromethyl-phenyl)-8-fluoro-10-methyl-3,4-dihydro-2H-pyrazino[1,2-a]indol-1-one]",240 °C,0.61 µM
"Cc1c2n(c3c(-c4ccc(F)c(F)c4)cc(C#N)cc13)CCNC2=O [Example 164, 6-(3,4-Difluoro-phenyl)-10-methyl-1-oxo-1,2,3,4-tetrahydro-pyrazino[1,2-a]indole-8-carbonitrile]",243 °C,0.045 µM
"N#Cc1cc(-c2ccc(CO)cc2)c2c(c1)cc1n2CCNC1=O [Example 228, 6-[4-(Hydroxymethyl)-phenyl]-1-oxo-3,4-dihydro-2H-pyrazino[1,2-a]indole-8-carbonitrile]",257.5 °C,0.041 µM
"N#Cc1cc(-c2ccc(C(F)(F)F)cc2)c2c(c1)cc1n2CCNC1=O [Example 95, 1-Oxo-6-(4-trifluoromethyl-phenyl)-1,2,3,4-tetrahydro-pyrazino[1,2-a]indole-8-carbonitrile]",359 °C,0.018 µM
"N#Cc1cc(-c2cccc(Cl)c2)c2c(c1)cc1n2CCCNC1=O [Example 285, 7-(3-Chlorophenyl)-1-oxo-2,3,4,5-tetrahydro-[1,4]diazepino[1,2-a]indole-9-carbonitrile]",209 °C,3.12 µM
"Cc1cc(-c2ccc(F)cc2)c2c(c1)cc1n2CCCNC1=O [Example 57, 7-(4-Fluoro-phenyl)-9-methyl-2,3,4,5-tetrahydro-[1,4]diazepino[1,2-a]indol-1-one]",234.5 °C,1.44 µM
"Cc1c2n(c3c(-c4ccc(N)nc4)cc(Cl)cc13)CCNC2=O [Example 161, 6-(6-Amino-pyridin-3-yl)-8-chloro-10-methyl-3,4-dihydro-2H-pyrazino[1,2-a]indol-1-one]",250 °C,0.27 µM
"N#Cc1cc(-c2ccnc(Cl)c2)c2c(c1)cc1n2CCNC1=O [Example 227, 6-(2-Chloropyridin-4-yl)-1-oxo-3,4-dihydro-2H-pyrazino[1,2-a]indole-8-carbonitrile]",286 °C,0.55 µM
